From US8242087B2, “Phosphate modified nucleosides useful as substrates for polymerases and as antiviral agents” (priority 2007, dated 2012)

Legend:
[1] = biological target: T1, HIV-1 Reverse Transcriptase (Human immunodeficiency virus type 1 group M subtype B, UniProt P03366); experiment: Single incorporation into P1T1 by HIV-1 Reverse Transcriptase (Examples 6, 7, 9); format: biochemical; settings: for conversion to an n+1 strand: 2 hours, 1 mM concentration
T1 construct: performed with the enzyme HIV-1 RT (Ambion, 10 U/μL stock solution); purchased Ambion
Procedure: HIV-1 Reverse Transcriptase serves, in the HIV-1 viral replication process, as a catalyst and uses deoxynucleotides as substrates. This polymerase is error-prone and thus has a high mutation rate. Here, we evaluated the capacity to incorporate a deoxyadenosine nucleoside into the primer-template complex P1T1 using HIV-1 RT, and some of the above described illustrative compounds of the invention, carrying different leaving groups, as substrates. The initial screening was carried out using a template with an overhang of one thymidine nucleotide followed by three non-pyrimidine bases (Table 1). Incorporation efficiency was analysed by the polyacrylamide gel-based single nucleotide incorporation assay.
End-labeled primer was annealed to its template by combining primer and template in a molar ratio of 1:2 and heating the mixture to 70° C. for 10 minutes followed by slow cooling to room temperature over a period of 1.5 hour. For the incorporation of 1, 2, 3, 4, 5 and 6, a series of 20 μL-batch reactions was performed with the enzyme HIV-1 RT (Ambion, 10 U/μL stock solution, specific activity 8.095 U/mg, concentration 1.2 mg/mL). The final mixture contained 125 nM primer template complex, RT buffer (250 mM Tris.HCl, 250 mM KCl, 50 mM MgCl2, 2.5 mM spermidine, 50 mM dithiothreitol (DTT); pH 8.3), 0.025 U/μL HIV-1 RT, and different concentrations of phosphoramidate or phosphodiester building blocks (1 mM, 500 μM, 200 μM and 100 μM respectively). In the case of the aromatic phosphate-modified nucleosides 23 and 24, the range of concentrations was limited to 1 mM. In the control reaction with the natural nucleotide, a 10 μM dATP concentration was used. The mixture was incubated at 37° C. and 2.5 μL aliquots were quenched after 5, 10, 20, 30, 60 and 120 minutes.

[2] = biological target: T2, HIV reverse transcriptase (HIV RT) (Human immunodeficiency virus type 1 group M subtype B, UniProt P03366); experiment: Single nucleotide incorporation by HIV RT, gel-based, P1/T1 (Examples 2-3); format: biochemical, HIV-1; settings: same conditions (500 μM, 60 min)
T2 construct: HIV RT polymerase was purchased from GE Healthcare; purchased GE Healthcare (Amersham Bioscience)
Procedure: (§1) A typical single nucleotide incorporation and primer extension assays using HIV RT polymerase was carried out similar to one described in the literature. HIV RT polymerase was purchased from GE Healthcare and was supplied as either 12 or 30 U/μL stock solution. The final concentration of HIV RT in a reaction mixture was 0.03-0.003 U/μL. A primer/template duplex mixture was prepared by combining appropriate amounts of a 5′-^33P-labeled primer (P1) and a template in 1:2 molar ratio to provide a 4× solution with 0.5 μM primer concentration. The polymerase reactions were carried out in a 5×RT buffer containing 250 mM TRIS.HCL, 250 mM KCl, 50 mM MgCl2, 2.5 mM spermidine, 50 mM DTT, pH 8.3. For the single nucleotide incorporation assay, a P1/T1 primer-template pair was used whereas the primer extension study was performed with P1/T3 and P1/T5 primer-template pairs.
Briefly, a mixture containing 5 μL of the 4× primer/DNA duplex solution and 5 μL of 4× polymerase solution was pre-incubated at 37° C. for 2 minutes to ensure formation a DNA polymerase/DNA duplex complex. Simultaneously, 2× solutions of dNTP to provide final concentrations of 100 μM, 200 μM, 500 μM and 1 mM were also pre-incubated at 37° C. for 2 minutes as well. The polymerase reaction in a total volume of 20 μL was initiated by addition of 10 μL of the 2× dNTP solution to the DNA polymerase/DNA duplex mixture. The reactions were run at 37° C. and aliquots (2.5 μL) were removed at specified time points and mixed with 10 μL of a quenching buffer containing 80% formamide, 2 mM EDTA, 1×TBE. Quenched reactions were analyzed by loading 2 μL of a reaction sample onto a 20% denaturing polyacrylamide:gel (19:1 acrylamide:bisacrylamide, 7M urea, 0.4 mm×30 cm×40 cm) made in 1×TBE buffer (90 mM Tris-borate, 2 mM EDTA, pH 8.3). The gel was pre-equilibrated for 2 hours before loading and the reactions were run along with a tracking dye marker containing bromophenol blue (BB) and xylene cyanol (XC) until the BB dye had run ⅔ of the total gel length. For visualization, gels were scanned using a Cyclone Phosphoroimager.

[3] = biological target: T3, Therminator DNA polymerase (Thermococcus sp., UniProt Q56366, A485L/D141A/E143A); experiment: Single nucleotide incorporation by Therminator DNA polymerase; format: biochemical, (9° N-7) Thermococcus sp.; settings: single nucleotide incorporation, P1/T1
T3 construct: purchased Westburg (NEB)
T3 sequence (Q56366 whole entry D141A/E143A/A485L): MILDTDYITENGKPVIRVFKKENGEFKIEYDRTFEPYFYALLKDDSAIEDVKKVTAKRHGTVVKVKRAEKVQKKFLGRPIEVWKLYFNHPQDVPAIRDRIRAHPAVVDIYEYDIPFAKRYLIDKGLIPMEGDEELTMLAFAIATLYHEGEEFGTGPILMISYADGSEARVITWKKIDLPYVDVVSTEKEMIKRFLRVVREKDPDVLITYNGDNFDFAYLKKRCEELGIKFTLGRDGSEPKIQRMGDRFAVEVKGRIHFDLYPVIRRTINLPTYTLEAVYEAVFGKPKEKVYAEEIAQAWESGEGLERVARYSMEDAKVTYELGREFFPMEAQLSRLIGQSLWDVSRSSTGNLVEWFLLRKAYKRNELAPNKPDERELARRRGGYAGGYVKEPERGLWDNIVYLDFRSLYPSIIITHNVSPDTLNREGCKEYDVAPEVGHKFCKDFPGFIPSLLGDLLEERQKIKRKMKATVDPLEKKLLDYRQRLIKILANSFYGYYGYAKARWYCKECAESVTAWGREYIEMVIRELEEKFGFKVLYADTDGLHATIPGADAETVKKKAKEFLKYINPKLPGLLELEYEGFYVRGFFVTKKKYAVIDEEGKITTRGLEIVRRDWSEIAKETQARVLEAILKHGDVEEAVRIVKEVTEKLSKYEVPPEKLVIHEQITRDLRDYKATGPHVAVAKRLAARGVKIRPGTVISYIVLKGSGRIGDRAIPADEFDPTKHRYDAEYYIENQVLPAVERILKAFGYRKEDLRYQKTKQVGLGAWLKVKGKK
Procedure: In the case of Therminator DNA polymerase, the enzyme was obtained from Westburg (NEB) (2 U/μL) and the reactions were carried out in a 10× Thermopol reaction buffer containing 20 mM TRIS.HCl, 10 mM KCl, 2 mM MgSO4, 0.1% Triton X-100, pH 8.8. The final concentration of the Therminator DNA pol in the reaction mixture was 8.33×10^−4 U/μL. The polymerase reaction involving Therminator DNA polymerase or any other thermostable polymerase (Vent (exo^−), Taq DNA polymerase) was carried out in a similar way as the HIV RT reaction with some modifications. The dNTP solutions and the primer/template/DNA polymerase mixture solutions were topped with mineral oil (30-60 μL) and pre-incubated at 70° C. for 2 minutes. The polymerase reactions were performed at 70° C. as well.

HIV RT = biological target: T4, HIV RT (Human immunodeficiency virus type 1 group M subtype B, UniProt P03366); experiment: Primer extension by HIV RT (P1/T3, P1/T5); format: biochemical, HIV-1; settings: one hour, 500 μM
T4 construct: HIV RT polymerase was purchased from GE Healthcare; purchased GE Healthcare (Amersham Bioscience)
Procedure: as §1
Primer extension study with HIV RT and Therminator DNA polymerase was performed in a fashion similar to the single nucleotide incorporation experiments. Two sets of primer/template complexes were used: P1/T3 and P1/T5.

Nc1ncnc2c1ncn2[C@H]1C[C@H](O)[C@@H](COP(=O)(O)Oc2cc(C(=O)O)cc(C(=O)O)c2)O1 [Compound 22, 2′-deoxyadenosine-5′-(5-hydroxy-isophthalic acid) phosphodiester]
conversion to an n+1 strand [1]: 90-92%

Nc1ncnc2c1ncn2[C@H]1C[C@H](O)[C@@H](COP(=O)(O)OCC(=O)O)O1 [GA-dAMP, 2′-deoxyadenosine-5′-(glycolic acid) phosphodiester]
n+1 formation ([1]; 500 μM): up to 68%

Nc1ncnc2c1ncn2[C@H]1C[C@H](O)[C@@H](COP(=O)(O)NCC2CO2)O1 (stereo partly shown) [Compound 3, 2′-deoxy-adenosine-5′-glycidyl-phosphoramidate]
incorporation, fold less efficient than Asp-dAMP [2]: 6.5 fold | incorporation as Therminator DNA polymerase substrate [3]: act effectively as alternative substrates | primer strand extension efficiency (HIV RT): low efficiency

Nc1ncnc2c1ncn2[C@H]1C[C@H](O)[C@@H](COP(=O)(O)Oc2ccc(C(=O)O)c(C(=O)O)c2)O1 [Compound 24, 2′-deoxyadenosine-5′-(4-hydroxy-phthalic acid) phosphodiester]
conversion to an n+1 strand [1]: 13%

Nc1ncnc2c1ncn2[C@H]1C[C@H](O)[C@@H](COP(=O)(O)Nc2cc(C(=O)O)cc(C(=O)O)c2)O1 [Compound 23, 2′-deoxyadenosine-5′(5-aminoisophthalic acid) phosphoramidate]
recognition as substrate ([1]; 1 mM): less well recognized as substrate
